Test results as given in ChEMBL document CHEMBL5550154, “Novel biaryloxazolidinone derivatives with broad-spectrum antibacterial activity, favorable drug-like profiles and in vivo efficacy against linezolid-resistant Staphylococcusaureus” (Eur J Med Chem, 2024).
≈ marks a conversion by molar mass, not a printed value.

How the values were obtained:
Staphylococcus aureus [1] = test: Antibacterial activity against methicillin-sensitive Staphylococcus aureus assessed as inhibition of bacterial growth incubated for 16 to 20 hrs by CLSI based broth liquid microdilution method; format: functional; conditions: time 16-20 hrs
Staphylococcus aureus [2] = test: Antibacterial activity against linezolid-resistant Staphylococcus aureus assessed as inhibition of bacterial growth incubated for 16 to 20 hrs by CLSI based broth liquid microdilution method; format: functional; conditions: time 16-20 hrs
Enterococcus faecalis = test: Antibacterial activity against linezolid-resistant Enterococcus faecalis assessed as inhibition of bacterial growth incubated for 16 to 20 hrs by CLSI based broth liquid microdilution method; format: functional; conditions: time 16-20 hrs
[3] = Microsomal stability in monkey liver microsomes assessed as elimination half life pretreated with compound upto 60 mins followed by NADPH addition and measured after 60 mins by LC/MS analysis; format: ADME, Macaca mulatta, Microsome; conditions: rhesus monkey, time < 120 min, read-out: beta t1/2
[4] = Microsomal stability in mouse liver microsomes assessed as elimination half life pretreated with compound upto 60 mins followed by NADPH addition and measured after 60 mins by LC/MS analysis; format: ADME, Microsome; conditions: time < 120 min; for half-life: liver microsomes, read-out: beta t1/2
[5] = Microsomal stability in mouse liver microsomes assessed as intrinsic clearance pretreated with compound upto 60 mins followed by NADPH addition and measured after 60 mins by LC/MS analysis; format: ADME, Microsome; conditions: time < 120 min, read-out: CLH
[6] = Microsomal stability in human liver microsomes assessed as parent compound remaining pretreated with compound upto 60 mins followed by NADPH addition and measured after 60 mins by LC/MS analysis; format: ADME, Microsome; conditions: time < 120 min; for remaining at 2 h: liver microsomes, read-out: Stability
[7] = Microsomal stability in monkey liver microsomes assessed as parent compound remaining pretreated with compound upto 60 mins followed by NADPH addition and measured after 60 mins by LC/MS analysis; format: ADME, Macaca mulatta, Microsome; conditions: rhesus monkey, time < 120 min, read-out: Stability
[8] = Microsomal stability in mouse liver microsomes assessed as parent compound remaining pretreated with compound upto 60 mins followed by NADPH addition and measured after 60 mins by LC/MS analysis; format: ADME, Microsome; conditions: time < 120 min; for remaining at 2 h: liver microsomes, read-out: Stability
[9] = Stability in human plasma assessed as parent compound remaining at 37 degreeC measured upto 60 mins by HPLC analysis; format: ADME, cell-free; conditions: read-out: Stability
[10] = Stability in dog plasma assessed as parent compound remaining at 37 degreeC measured upto 60 mins by HPLC analysis; format: ADME, cell-free, Canis lupus familiaris; conditions: read-out: Stability
[11] = Stability in rat plasma assessed as parent compound remaining at 37 degreeC measured upto 60 mins by HPLC analysis; format: ADME, cell-free; conditions: read-out: Stability
[12] = Stability in mouse plasma assessed as parent compound remaining at 37 degreeC measured upto 60 mins by HPLC analysis; format: ADME, cell-free; conditions: read-out: Stability
[13] = Stability in mouse plasma assessed as parent compound remaining at 25 degreeC measured upto 60 mins by HPLC analysis; format: ADME, cell-free; conditions: for Stability: 1 h
[14] = Plasma protein binding in rat incubated for 6 hrs by LC-MS/MS analysis; format: ADME, cell-free; conditions: read-out: PPB (converted)
[15] = Plasma protein binding in mouse incubated for 6 hrs by LC-MS/MS analysis; format: ADME, cell-free; conditions: read-out: PPB (converted)
[16] = Aqueous solubility of compound at pH 2 by LC-MS/MS analysis; format: physicochemical; conditions: buffer
[17] = Elimination half life in Sprague-Dawley rat at 1 mg/kg, iv measured upto 24 hrs by LC-MS analysis; format: ADME, organism-based; conditions: in vivo, read-out: beta t1/2 (converted)
[18] = Clearance in Sprague-Dawley rat at 1 mg/kg, iv measured upto 24 hrs by LC-MS analysis; format: ADME, organism-based; conditions: in vivo
[19] = Elimination half life in Sprague-Dawley rat at 10 mg/kg, IG measured upto 24 hrs by LC-MS analysis; format: ADME, organism-based; conditions: in vivo, po, read-out: beta t1/2 (converted)
[20] = Tmax in Sprague-Dawley rat at 10 mg/kg, IG measured upto 24 hrs by LC-MS analysis; format: ADME, organism-based; conditions: in vivo, po
[21] = AUC (0 to t) in Sprague-Dawley rat at 10 mg/kg, IG measured upto 24 hrs by LC-MS analysis; format: ADME, organism-based; conditions: in vivo, po
[22] = Bioavailability in Sprague-Dawley rat at 10 mg/kg, IG measured upto 24 hrs by LC-MS analysis; format: ADME, organism-based; conditions: in vivo, po
[23] = AUC (0 to t) in ICR mouse at 1 mg/kg, iv measured upto 24 hrs by LC-MS analysis; format: ADME, organism-based; conditions: in vivo
[24] = Volume of distribution at steady state in ICR mouse at 1 mg/kg, iv measured upto 24 hrs by LC-MS analysis; format: ADME, organism-based; conditions: in vivo, read-out: Vdss
[25] = Cmax in ICR mouse at 10 mg/kg, IG measured upto 24 hrs by LC-MS analysis; format: ADME, organism-based; conditions: in vivo, po
[26] = AUC (0 to t) in ICR mouse at 10 mg/kg, IG measured upto 24 hrs by LC-MS analysis; format: ADME, organism-based; conditions: in vivo, po
[27] = Cytotoxicity against human HepG2 cells incubated for 48 hrs by MTT assay; format: toxicity, cell-based
Cytochrome P450 1A2 = target: T1, Cytochrome P450 1A2 (Homo sapiens, UniProt P05177); test: Inhibition of CYP1A2 in human liver microsomes with alpha-naphthoflavone as reference inhibitor preincubated with compound for 5 mins followed by substrate addition and measured after 120 mins in presence of NADPH by LC-MS/MS analysis; format: ADME, Microsome
T1 sequence (P05177 whole entry): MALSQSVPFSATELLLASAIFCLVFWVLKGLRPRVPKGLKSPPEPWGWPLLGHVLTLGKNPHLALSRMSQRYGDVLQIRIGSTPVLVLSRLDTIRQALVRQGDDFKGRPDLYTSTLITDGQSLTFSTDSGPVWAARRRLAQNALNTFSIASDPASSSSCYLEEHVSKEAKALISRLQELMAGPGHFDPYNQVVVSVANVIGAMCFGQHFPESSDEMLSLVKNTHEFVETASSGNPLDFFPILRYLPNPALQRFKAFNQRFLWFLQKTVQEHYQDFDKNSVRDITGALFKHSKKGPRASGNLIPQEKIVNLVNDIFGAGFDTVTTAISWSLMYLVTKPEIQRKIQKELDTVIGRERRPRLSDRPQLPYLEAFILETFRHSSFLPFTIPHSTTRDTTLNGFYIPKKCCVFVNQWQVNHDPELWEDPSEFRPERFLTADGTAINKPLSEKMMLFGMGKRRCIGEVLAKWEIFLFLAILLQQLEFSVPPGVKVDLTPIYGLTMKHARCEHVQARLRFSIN

Cytochrome P450 2C9 = Cytochrome P450 2C9 (Homo sapiens, UniProt P11712); test: Inhibition of CYP2C9 in human liver microsomes using […] preincubated with compound for 5 mins followed by substrate addition and measured after 120 mins in presence of NADPH by LC-MS/MS analysis; format: ADME, Microsome
Cytochrome P450 2D6 = Cytochrome P450 2D6 (Homo sapiens, UniProt P10635); test: Inhibition of CYP2D6 in human liver microsomes […] preincubated with compound for 5 mins followed by substrate addition and measured after 120 mins in presence of NADPH by LC-MS/MS analysis; format: ADME, Microsome
Cytochrome P450 3A4 = Cytochrome P450 3A4 (Homo sapiens, UniProt P08684); test: Inhibition of CYP3A4 in human liver microsomes […] preincubated with compound for 5 mins followed by substrate addition and measured after 120 mins in presence of NADPH by LC-MS/MS analysis; format: ADME, Microsome
[28] = Half life in ICR mouse at 10 mg/kg, IG measured upto 24 hrs by LC-MS analysis; format: ADME, organism-based; conditions: in vivo, po

Sequence of Cytochrome P450 2D6 (P10635 whole entry): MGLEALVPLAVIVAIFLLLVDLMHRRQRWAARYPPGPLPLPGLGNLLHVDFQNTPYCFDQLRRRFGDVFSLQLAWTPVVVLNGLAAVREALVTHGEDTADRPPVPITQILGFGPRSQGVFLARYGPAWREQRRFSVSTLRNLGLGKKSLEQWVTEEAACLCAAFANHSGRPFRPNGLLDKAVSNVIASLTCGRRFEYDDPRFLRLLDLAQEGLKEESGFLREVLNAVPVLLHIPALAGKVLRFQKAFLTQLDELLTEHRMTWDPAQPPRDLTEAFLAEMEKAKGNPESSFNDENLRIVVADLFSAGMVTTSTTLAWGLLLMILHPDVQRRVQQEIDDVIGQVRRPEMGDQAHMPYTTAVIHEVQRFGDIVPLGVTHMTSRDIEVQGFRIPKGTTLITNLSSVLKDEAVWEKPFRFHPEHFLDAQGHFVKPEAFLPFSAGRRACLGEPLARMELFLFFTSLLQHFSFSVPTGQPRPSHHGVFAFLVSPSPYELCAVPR
Sequence of Cytochrome P450 2C9 (P11712 whole entry): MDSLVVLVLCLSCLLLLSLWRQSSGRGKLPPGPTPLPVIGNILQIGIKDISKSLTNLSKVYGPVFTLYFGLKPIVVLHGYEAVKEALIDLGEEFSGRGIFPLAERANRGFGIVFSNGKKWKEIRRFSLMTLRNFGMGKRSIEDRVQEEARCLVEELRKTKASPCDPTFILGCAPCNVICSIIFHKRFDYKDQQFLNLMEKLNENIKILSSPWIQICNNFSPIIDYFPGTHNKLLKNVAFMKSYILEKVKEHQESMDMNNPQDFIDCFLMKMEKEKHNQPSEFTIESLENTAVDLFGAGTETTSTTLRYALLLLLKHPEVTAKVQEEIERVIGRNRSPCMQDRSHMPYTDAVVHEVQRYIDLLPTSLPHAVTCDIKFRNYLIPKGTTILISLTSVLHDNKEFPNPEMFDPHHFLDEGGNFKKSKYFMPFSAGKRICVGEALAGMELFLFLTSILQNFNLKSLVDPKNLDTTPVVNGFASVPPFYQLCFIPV
Sequence of Cytochrome P450 3A4 (P08684 whole entry): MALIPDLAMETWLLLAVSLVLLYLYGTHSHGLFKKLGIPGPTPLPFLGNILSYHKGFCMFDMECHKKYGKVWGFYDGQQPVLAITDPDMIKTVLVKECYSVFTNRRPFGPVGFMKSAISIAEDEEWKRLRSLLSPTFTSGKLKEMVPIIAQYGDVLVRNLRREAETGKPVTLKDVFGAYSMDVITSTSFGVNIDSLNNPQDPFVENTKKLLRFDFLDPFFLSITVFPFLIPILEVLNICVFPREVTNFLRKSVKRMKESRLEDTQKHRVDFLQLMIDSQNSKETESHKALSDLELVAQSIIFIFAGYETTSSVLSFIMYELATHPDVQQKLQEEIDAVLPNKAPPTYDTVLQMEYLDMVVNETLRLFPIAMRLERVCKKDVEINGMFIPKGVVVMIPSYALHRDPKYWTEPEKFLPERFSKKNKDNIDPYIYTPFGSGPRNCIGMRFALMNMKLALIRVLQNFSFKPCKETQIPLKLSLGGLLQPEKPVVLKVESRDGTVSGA

| Structure (SMILES) | MIC (Staphylococcus aureus [1]) [µg/mL] | MIC (Staphylococcus aureus [2]) [µg/mL] | MIC (Enterococcus faecalis) [µg/mL] | half-life [3] [h] | microsomal CLint [5] [µL/min/mg] | remaining at 2 h [7] [%] | remaining at 1 h [9] [%] | remaining at 1 h [10] [%] | remaining at 1 h [11] [%] | remaining at 1 h [12] [%] | fraction unbound at 6 h [14] | fraction unbound at 6 h [15] | solubility [16] [µM] | half-life [17] [h] | clearance [18] [mL/min/kg] | half-life [19] [h] | Tmax [20] [h] | AUC(0-t) at 24 h [21] [ng·h/mL] | bioavailability [22] [%] | IC50 at 48 h [27] [µM] | other results |
| --- | --- | --- | --- | --- | --- | --- | --- | --- | --- | --- | --- | --- | --- | --- | --- | --- | --- | --- | --- | --- | --- |
| O=C1O[C@@H](CO)CN1c1ccc(-c2ccc(/C=N/N3CCCCC3)nc2)c(F)c1 | 0.03 (≈ 0.0753 µM) | 0.03 (≈ 0.0753 µM) | 0.5 (≈ 1.25 µM) | 1.34 | 9.37 | 59 | 118 | 100 | 104 | 111 | 0.006 | 0.013 | 58.4 (≈ 23.3 µg/mL) | 1.23 | 11.6 | 2.72 | 1.67 | 7170 | 51.1 | > 30 | half-life [4]: 2.5 h; Stability ([6]; microsomes, 2 h): 71.7%; remaining at 2 h [8]: 75.2%; Stability [13]: 123%; AUC(0-t) at 24 h [23]: 1190 ng·h/mL; Vd [24]: 1.31 L/kg; Cmax [25]: 817 ng/mL; AUC(0-t) at 24 h [26]: 4740 ng·h/mL; IC50 (Cytochrome P450 1A2): > 30 µM; IC50 (Cytochrome P450 2C9): 5.38 µM; IC50 (Cytochrome P450 2D6): > 30 µM; IC50 (Cytochrome P450 3A4): > 30 µM |
| CC(C)N/N=C/c1ccc(-c2ccc(N3C[C@H](CO)OC3=O)cc2F)cn1 | 0.03 (≈ 0.0806 µM) | 0.03 (≈ 0.0806 µM) | 1 (≈ 2.69 µM) | 1.68 | 18.4 | 66 | 107 | 108 | 102 | 80.2 | 0.018 | 0.048 | 56.4 (≈ 21 µg/mL) | 0.98 | 10.3 | 1.94 | 1.17 | 10100 | 65.8 | > 30 | beta t1/2 ([4]; microsomes, 2 h): 1.26 h; remaining at 2 h [6]: 85.8%; Stability ([8]; microsomes, 2 h): 57.9%; remaining at 1 h ([13]; read-out: Stability): 113%; AUC(0-t) at 24 h [23]: 475 ng·h/mL; Vd [24]: 0.42 L/kg; half-life [28]: 3.3 h; Cmax [25]: 479 ng/mL; AUC(0-t) at 24 h [26]: 613 ng·h/mL; IC50 (Cytochrome P450 1A2): > 30 µM; IC50 (Cytochrome P450 2C9): > 30 µM; IC50 (Cytochrome P450 2D6): > 30 µM; IC50 (Cytochrome P450 3A4): 16.5 µM |
| O=C1O[C@@H](CO)CN1c1ccc(-c2ccc(/C=N/N3CCS(=O)(=O)CC3)nc2)c(F)c1 | 0.125 (≈ 0.279 µM) | 0.25 (≈ 0.557 µM) | 0.5 (≈ 1.11 µM) | 9.68 | 1.07 | 98.8 | 104 | 107 | 106 | 102 | 0.096 | 0.245 | 72.2 (≈ 32.4 µg/mL) | 0.72 | 14.7 | 4.28 | 0.42 | 2120 | 19.8 | > 30 | half-life [4]: 32.5 h; remaining at 2 h [6]: 98.7%; remaining at 2 h [8]: 96%; Stability [13]: 133%; IC50 (Cytochrome P450 1A2): > 30 µM; IC50 (Cytochrome P450 2C9): > 30 µM; IC50 (Cytochrome P450 2D6): > 30 µM; IC50 (Cytochrome P450 3A4): > 30 µM |
